This is an account of results in patent US6534496B1, “Thermogenic composition and benzazepine thermogenics” (Takeda Chemical Industries, Inc., priority 1997, dated 2003).

The structures appear in SMILES notation. Where a name gives a salt, the structure may show the parent alone.

For orientation: melting point means the temperature of the solid-liquid transition.

`Cl.Cl.O=C(CC1CCN(Cc2ccc(F)cc2)CC1)c1ccc2c(c1)CCN(Cc1ccccc1)CC2`: the melting point is 243 to 247 °C (dec.).

Take `Cl.Cl.O=C(CCCC1CCN(Cc2ccccc2)CC1)c1ccc2c(c1)CCN(Cc1ccccc1)CC2`: the melting point was 220 to 222 °C (dec.).

As for `Cl.Cl.O=C(CCCC1CCN(Cc2ccc(F)cc2)CC1)c1ccc2c(c1)CCN(Cc1ccccc1)CC2`, the melting point was 226 to 229 °C (dec.). In turn, `Cc1ccc(CN2CCC(CC(=O)c3ccc4c(c3)CCN(Cc3ccccc3)CC4)CC2)cc1.Cl.Cl` returned a melting point of 229 to 233 °C. On to `Cc1ccccc1CN1CCC(CCCC(=O)c2ccc3c(c2)CCN(Cc2ccccc2)CC3)CC1.Cl.Cl`, for which the melting point is 226 to 229 °C (dec.). The value for `Cc1cccc(CN2CCC(CCCC(=O)c3ccc4c(c3)CCN(Cc3ccccc3)CC4)CC2)c1.Cl.Cl` was 222 to 225 °C (dec.); that for `Cc1ccc(CN2CCC(CCCC(=O)c3ccc4c(c3)CCN(Cc3ccccc3)CC4)CC2)cc1.Cl.Cl` was 207 to 210 °C (dec.).

Turning to `Cc1ccccc1CN1CCc2ccc(C(=O)CCCC3CCN(Cc4ccc(F)cc4)CC3)cc2CC1.Cl.Cl`, the melting point was 197 to 200 °C. `Cc1ccc(CN2CCC(CCCC(=O)c3ccc4c(c3)CCN(Cc3ccc([N+](=O)[O-])cc3)CC4)CC2)cc1.Cl.Cl` came in with a melting point of 208 to 211 °C.

For the compound `Cc1ccc(CN2CCC(CCCC(=O)c3ccc4c(c3)CCN(Cc3ccc(C#N)cc3)CC4)CC2)cc1.Cl.Cl`, the melting point is 206 to 209 °C (dec.). The value for `CC(=O)N1CCc2ccc(C(=O)CCCC3CCN(Cc4ccccc4C)CC3)cc2CC1.Cl` was 93 to 94 °C. For `Cl.O=C(CCC1CCN(C(=O)c2ccccc2)CC1)c1ccc2c(c1)CCN(Cc1ccccc1)CC2`, the melting point was in the range of 118 to 121 °C. `COc1ccc(CN2CCc3cc(C(=O)CCC4CCN(Cc5ccccc5)CC4)ccc32)cc1.O=C(O)/C=C/C(=O)O`: the melting point lay in the range of 95 to 98 °C. The result for `CC(=O)N1CCC(CCC(=O)c2ccc3c(c2)CN(Cc2ccccc2)c2ccccc2CC3)CC1.Cl` reads 155 to 158 °C; that for `CC(=O)N1CCC(CCC(=O)c2ccc3c(c2)CN(Cc2ccc(F)cc2)CCO3)CC1.Cl`, 186 to 188 °C.

Turning to `COc1ccc(CN2CCc3ccc(C(=O)CCC4CCN(C(=O)c5ccc(-c6ccccc6)cc5)CC4)cc3CC2)cc1.Cl`, the melting point is 212 to 215 °C. The value for `O=C(CCCC1CCN(Cc2ccc([N+](=O)[O-])cc2)CC1)c1ccc2c(c1)CCN(Cc1ccccc1)CC2` (as salt: hydrochloride) was 242 to 247 °C (dec.); that for `COC(=O)c1ccc(CN2CCC(CCCC(=O)c3ccc4c(c3)CCN(Cc3ccccc3)CC4)CC2)cc1` (as salt: hydrochloride) was 239 to 244 °C (dec.).

In turn, `CS(=O)(=O)Nc1cccc(CN2CCC(CCCC(=O)c3ccc4c(c3)CCN(Cc3ccccc3)CC4)CC2)c1` (as salt: hydrochloride) came in with a melting point of 158 to 164 °C. The result for `CC(=O)Nc1ccccc1CN1CCC(CCCC(=O)c2ccc3c(c2)CCN(Cc2ccccc2C)CC3)CC1` (as salt: hydrochloride) reads 172 to 178 °C; that for `COc1ccc(CN2CCC(CCC(=O)c3ccc4c(c3)CCN(Cc3ccc(F)cc3)CC4)CC2)cc1` (as salt: hydrochloride), 235 to 238 °C (dec.). For `CC(C)(C)c1ccc(CN2CCC(CCC(=O)c3ccc4c(c3)CCN(Cc3ccc(F)cc3)CC4)CC2)cc1` (as salt: hydrochloride), the melting point is 230 to 236 °C (dec.). Take `Cc1ccc(CN2CCC(CCC(=O)c3ccc4c(c3)CN(Cc3ccc(F)cc3)CCO4)CC2)cc1` (as salt: hydrochloride): the melting point lay in the range of 240 to 242 °C. The result for `COc1ccc(CN2CCc3ccc(C(=O)CCC4CCN(Cc5ccc(-c6ccccc6)cc5)CC4)cc3CC2)cc1` (as salt: hydrochloride) reads 220 to 225 °C (dec.).
